Test results reported in patent US10543212B2, “Substituted amines for treating cardiac diseases” (Cardurion Pharmaceuticals, LLC, priority 2017, dated 2020).

Target: T1, Full-length, GST-tagged, human CaMKIIδ (Homo sapiens, UniProt Q13557)
T1 construct: Full-Length, Glutathione-S-Transferase(GST)-Tagged, Human CaMKIIδ was purchased from Carna Biosciences; purchased Carna Biosciences 02-111
Experiment: CaMKIIδ binding assay (TR-FRET with BODIPY-labeled probe ligand)
Conditions: CaMKIIδ binding assay, results of Table 2
Procedure, shortened: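 Compounds were tested as 4-fold, eight-point series for 1 hr at room temperature, and IC50 was obtained by logistic fitting against a 3 μM parent-compound control. Signal came from displacement of a 300 nM BODIPY ligand from 0.5 nM GST-CaMKIIδ, detected via Tb-anti-GST in calmodulin/Ca2+ (pH 7.6).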

T1 sequence (Q13557 1-478 isoform Q13557-12): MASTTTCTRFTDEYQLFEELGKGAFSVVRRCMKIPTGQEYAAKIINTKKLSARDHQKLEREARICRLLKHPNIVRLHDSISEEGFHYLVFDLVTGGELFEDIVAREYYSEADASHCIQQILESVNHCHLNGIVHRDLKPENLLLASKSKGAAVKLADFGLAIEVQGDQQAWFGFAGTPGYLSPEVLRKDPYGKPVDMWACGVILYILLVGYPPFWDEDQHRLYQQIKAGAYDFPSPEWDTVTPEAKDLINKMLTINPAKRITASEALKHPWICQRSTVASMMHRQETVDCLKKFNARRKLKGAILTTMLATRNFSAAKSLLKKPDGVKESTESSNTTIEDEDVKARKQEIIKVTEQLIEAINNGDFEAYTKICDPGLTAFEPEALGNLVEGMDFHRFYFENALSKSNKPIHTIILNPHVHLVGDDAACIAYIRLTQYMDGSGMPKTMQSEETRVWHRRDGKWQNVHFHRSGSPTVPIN

SMILES | IC50
COc1cc2c(cc1Nc1ncc(-c3ccc(Cl)c(O[C@@H](C)Cn4cnnn4)c3)cn1)CCN(CC(=O)O)C2 [Example 506, (S)-2-(6-((5-(3-((1-(1H-tetrazol-1-yl)propan-2-yl)oxy)-4-chlorophenyl)pyrimidin-2-yl)amino)-7-methoxy-3,4-dihydroisoquinolin-2(1H)-yl)acetic acid] | < 0.01 µM
C[C@@H](Cn1cnnn1)Oc1cc(-c2cnc(Nc3cc(N4CCC(N5CCOCC5)CC4)ncc3OC(F)(F)F)nc2)ccc1C#N [Example 543, (S)-2-((1-(1H-tetrazol-1-yl)propan-2-yl)oxy)-4-(2-((2-(4-morpholinopiperidin-1-yl)-5-(trifluoromethoxy)pyridin-4-yl)amino)pyrimidin-5-yl)benzonitrile] | < 0.01 µM
C[C@@H](Cn1cnnn1)Oc1cc(-c2cnc(Nc3cc(N4CCN(C5CCOCC5)CC4)ncc3OC(F)(F)F)nc2)ccc1C#N [Example 542, (S)-2-((1-(1H-tetrazol-1-yl)propan-2-yl)oxy)-4-(2-((2-(4-(tetrahydro-2H-pyran-4-yl)piperazin-1-yl)-5-(trifluoromethoxy)pyridin-4-yl)amino)pyrimidin-5-yl)benzonitrile] | < 0.01 µM
COc1ccc(C(=O)N2CCCN(C3COC3)CC2)cc1Nc1ncc(-c2ccc(Cl)c(O[C@@H](C)Cn3cnnn3)c2)cn1 [Example 573, (S)-(3-((5-(3-((1-(1H-tetrazol-1-yl)propan-2-yl)oxy)-4-chlorophenyl)pyrimidin-2-yl)amino)-4-methoxyphenyl) (4-(oxetan-3-yl)-1,4-diazepan-1-yl)methanone] | < 0.01 µM
COc1ccc(C(=O)N2CCCN(C)CC2)cc1Nc1ncc(-c2ccc(Cl)c(O[C@@H](C)Cn3cnnn3)c2)cn1 [Example 544, (S)-(3-((5-(3-((1-(1H-tetrazol-1-yl)propan-2-yl)oxy)-4-chlorophenyl)pyrimidin-2-yl)amino)-4-methoxyphenyl) (4-methyl-1,4-diazepan-1-yl)methanone] | < 0.01 µM

Same assay, conditions: CaMKIIδ binding assay; activity class per Table 2

SMILES | IC50
C[C@@H](Cn1cnnn1)Oc1cc(-c2cnc(Nc3cn(C4CC5(C4)CN(C4COC(C)(C)OC4)C5)nc3OCC(F)(F)F)nc2)ccc1Cl [Example 932, (S)-5-(3-((1-(1H-tetrazol-1-yl)propan-2-yl)oxy)-4-chlorophenyl)-N-(1-(2-(2,2-dimethyl-1,3-dioxan-5-yl)-2-azaspiro[3.3]heptan-6-yl)-3-(2,2,2-trifluoroethoxy)-1H-pyrazol-4-yl)pyrimidin-2-amine] | < 0.01 µM
C[C@@H](Cn1cnnn1)Oc1cc(-c2cnc(Nc3cn(CCNC(N)=O)nc3C(F)(F)F)nc2)ccc1Cl [Example 887, (S)-1-(2-(4-((5-(3-((1-(1H-tetrazol-1-yl)propan-2-yl)oxy)-4-chlorophenyl)pyrimidin-2-yl)amino)-3-(trifluoromethyl)-1H-pyrazol-1-yl)ethyl)urea] | 0.01 to 0.1 µM
C[C@@H](Cn1cnnn1)Oc1cc(-c2cnc(Nc3cn(C4CC5(C4)CN(C4COCCOC4)C5)nc3OCC(F)(F)F)nc2)ccc1Cl [Example 982, (S)—N-(1-(2-(1,4-dioxepan-6-yl)-2-azaspiro[3.3]heptan-6-yl)-3-(2,2,2-trifluoroethoxy)-1H-pyrazol-4-yl)-5-(3-((1-(1H-tetrazol-1-yl)propan-2-yl)oxy)-4-chlorophenyl)pyrimidin-2-amine] | < 0.01 µM

Same assay, conditions: Table 2; CaMKIIδ binding assay, activity given as class A/B/C

SMILES | IC50
C[C@@H](Cn1cnnn1)Oc1cc(-c2cnc(Nc3cn([C@H]4CC[C@H](N5[C@@H]6CC[C@H]5COC6)CC4)nc3OCC(F)F)nc2)ccc1Cl [Example 844, 5-(3-(((S)-1-(1H-tetrazol-1-yl)propan-2-yl)oxy)-4-chlorophenyl)-N-(1-(trans-4-((1R,5S)-3-oxa-8-azabicyclo[3.2.1]octan-8-yl)cyclohexyl)-3-(2,2-difluoroethoxy)-1H-pyrazol-4-yl)pyrimidin-2-amine] | < 0.01 µM
CC(=O)NCCn1cc(Nc2ncc(-c3ccc(Cl)c(O[C@@H](C)Cn4cnnn4)c3)cn2)c(C(F)(F)F)n1 [Example 846, (S)-N-(2-(4-((5-(3-((1-(1H-tetrazol-1-yl)propan-2-yl)oxy)-4-chlorophenyl)pyrimidin-2-yl)amino)-3-(trifluoromethyl)-1H-pyrazol-1-yl)ethyl)acetamide] | 0.01 to 0.1 µM
C[C@@H](Cn1cnnn1)Oc1cc(-c2cnc(Nc3cn(-c4cccc(=O)[nH]4)nc3OCC(F)(F)F)nc2)ccc1Cl [Example 879, (S)-6-(4-((5-(3-((1-(1H-tetrazol-1-yl)propan-2-yl)oxy)-4-chlorophenyl)pyrimidin-2-yl)amino)-3-(2,2,2-trifluoroethoxy)-1H-pyrazol-1-yl)pyridin-2(1H)-one] | 0.01 to 0.1 µM
C[C@@H](Cn1cnnn1)Oc1cc(-c2cnc(Nc3cn([C@H]4CC[C@H](N5CC(C)(O)C5)CC4)nc3C(F)(F)F)nc2)ccc1Cl [Example 804, 1-(trans-4-(4-((5-(3-(((S)-1-(1H-tetrazol-1-yl)propan-2-yl)oxy)-4-chlorophenyl)pyrimidin-2-yl)amino)-3-(trifluoromethyl)-1H-pyrazol-1-yl)cyclohexyl)-3-methylazetidin-3-ol] | < 0.01 µM
C[C@@H](Cn1cnnn1)Oc1cc(-c2cnc(Nc3cn([C@H]4CC[C@H](N5CC(C)(O)C5)CC4)nc3OCC(F)(F)F)nc2)ccc1Cl [Example 802, 1-(trans-4-(4-((5-(3-(((S)-1-(1H-tetrazol-1-yl)propan-2-yl)oxy)-4-chlorophenyl)pyrimidin-2-yl)amino)-3-(2,2,2-trifluoroethoxy)-1H-pyrazol-1-yl)cyclohexyl)-3-methylazetidin-3-ol] | < 0.01 µM
C[C@@H](CO)Cn1cc(Nc2ncc(-c3ccc(Cl)c(O[C@@H](C)Cn4cnnn4)c3)cn2)c(OCC(F)(F)F)n1 [Example 784, (R)-3-(4-((5-(3-(((S)-1-(1H-tetrazol-1-yl)propan-2-yl)oxy)-4-chlorophenyl)pyrimidin-2-yl)amino)-3-(2,2,2-trifluoroethoxy)-1H-pyrazol-1-yl)-2-methylpropan-1-ol] | < 0.01 µM
C[C@@H](Cn1cnnn1)Oc1cc(-c2cnc(Nc3cn(CCNC(=O)OC(C)(C)C)nc3C(F)(F)F)nc2)ccc1Cl [Example 845, tert-butyl (S)-(2-(4-((5-(3-((1-(1H-tetrazol-1-yl)propan-2-yl)oxy)-4-chlorophenyl)pyrimidin-2-yl)amino)-3-(trifluoromethyl)-1H-pyrazol-1-yl)ethyl)carbamate] | 0.01 to 0.1 µM
C[C@@H](Cn1cnnn1)Oc1cc(-c2cnc(Nc3cn(C4CCN(C5CCOCC5)CC4)nc3OCC(F)(F)F)nc2)ccc1C#N [Example 790, (S)-2-((1-(1H-tetrazol-1-yl)propan-2-yl)oxy)-4-(2-((1-(1-(tetrahydro-2H-pyran-4-yl)piperidin-4-yl)-3-(2,2,2-trifluoroethoxy)-1H-pyrazol-4-yl)amino)pyrimidin-5-yl)benzonitrile] | < 0.01 µM

Same assay, conditions: Table 2; activity class for CaMKIIδ

SMILES | IC50
C[C@@H](Cn1cnnn1)Oc1cc(-c2cnc(Nc3cn(C4CCOCC4)nc3C(F)(F)F)nc2)ccc1Cl [Example 645, (S)-5-(3-((1-(1H-tetrazol-1-yl)propan-2-yl)oxy)-4-chlorophenyl)-N-(1-(tetrahydro-2H-pyran-4-yl)-3-(trifluoromethyl)-1H-pyrazol-4-yl)pyrimidin-2-amine] | 0.01 to 0.1 µM
COc1cc(N2CCNCC2)ncc1Nc1ncc(-c2ccc(Cl)c(O[C@@H](C)Cn3cnnn3)c2)cn1 [Example 622, (S)-5-(3-((1-(1H-tetrazol-1-yl)propan-2-yl)oxy)-4-chlorophenyl)-N-(4-methoxy-6-(piperazin-1-yl)pyridin-3-yl)pyrimidin-2-amine] | < 0.01 µM
COc1ccc(N2CCN(C(=O)CN(C)C)CC2)cc1Nc1ncc(-c2ccc(Cl)c(O[C@@H](C)Cn3cnnn3)c2)cn1 [Example 583, (S)-1-(4-(3-((5-(3-((1-(1H-tetrazol-1-yl)propan-2-yl)oxy)-4-chlorophenyl)pyrimidin-2-yl)amino)-4-methoxyphenyl)piperazin-1-yl)-2-(dimethylamino)ethan-1-one] | < 0.01 µM
COc1ccc(N2CCN(C)CC2)cc1Nc1ncc(-c2ccc(Cl)c(O[C@@H](C)Cn3cnnn3)c2)cn1 [Example 584, (S)-5-(3-((1-(1H-tetrazol-1-yl)propan-2-yl)oxy)-4-chlorophenyl)-N-(2-methoxy-5-(4-methylpiperazin-1-yl)phenyl)pyrimidin-2-amine] | < 0.01 µM
C[C@@H](Cn1cnnn1)Oc1cc(-c2cnc(Nc3cc(C4CCN(C5COC5)CC4)c(F)cc3F)nc2)ccc1Cl [Example 684, (S)-5-(3-((1-(1H-tetrazol-1-yl)propan-2-yl)oxy)-4-chlorophenyl)-N-(2,4-difluoro-5-(1-(oxetan-3-yl)piperidin-4-yl)phenyl)pyrimidin-2-amine] | 0.01 to 0.1 µM
COc1ccc(N2CCN(CC(N)=O)CC2)cc1Nc1ncc(-c2ccc(Cl)c(O[C@@H](C)Cn3cnnn3)c2)cn1 [Example 686, (S)-2-(4-(3-((5-(3-((1-(1H-tetrazol-1-yl)propan-2-yl)oxy)-4-chlorophenyl)pyrimidin-2-yl)amino)-4-methoxyphenyl)piperazin-1-yl)acetamide] | < 0.01 µM
C[C@@H](Cn1cnnn1)Oc1cc(-c2cnc(Nc3cn(C4CCN(C5CCOCC5)CC4)nc3C(F)(F)F)nc2)ccc1Cl [Example 706, (S)-5-(3-((1-(1H-tetrazol-1-yl)propan-2-yl)oxy)-4-chlorophenyl)-N-(1-(1-(tetrahydro-2H-pyran-4-yl)piperidin-4-yl)-3-(trifluoromethyl)-1H-pyrazol-4-yl)pyrimidin-2-amine] | < 0.01 µM
C[C@@H](Cn1cnnn1)Oc1cc(-c2cnc(Nc3cc(-c4ccccc4)nn3C)nc2)ccc1Cl [Example 719, (S)-5-(3-((1-(1H-tetrazol-1-yl)propan-2-yl)oxy)-4-chlorophenyl)-N-(1-methyl-3-phenyl-1H-pyrazol-5-yl)pyrimidin-2-amine] | 0.01 to 0.1 µM
